Experimental findings from ChEMBL document CHEMBL1137232 (J Med Chem, 2004) are described below.

The target of assay [1] is Norepinephrine transporter (Rattus norvegicus, UniProt Q9WTR4). The assay is described as follows: Inhibition of high affinity uptake by the norepinephrine transporter from rat synaptosomal nerve endings by using [3H]NE as radioligand.
In assay [2] the target is Sodium-dependent dopamine transporter (Rattus norvegicus, UniProt P23977). The assay is described as follows: Inhibition of high affinity uptake by the dopamine transporter from rat synaptosomal nerve endings by using [3H]DA as radioligand.
The target in assay [3] is Sodium-dependent serotonin transporter (Rattus norvegicus, UniProt P31652). Briefly: Inhibition of high affinity uptake by the serotonin transporter (5-HT) from rat synaptosomal nerve endings by using [3H]5-HT as radioligand.
Sodium-dependent serotonin transporter, sequence (P31652 whole entry): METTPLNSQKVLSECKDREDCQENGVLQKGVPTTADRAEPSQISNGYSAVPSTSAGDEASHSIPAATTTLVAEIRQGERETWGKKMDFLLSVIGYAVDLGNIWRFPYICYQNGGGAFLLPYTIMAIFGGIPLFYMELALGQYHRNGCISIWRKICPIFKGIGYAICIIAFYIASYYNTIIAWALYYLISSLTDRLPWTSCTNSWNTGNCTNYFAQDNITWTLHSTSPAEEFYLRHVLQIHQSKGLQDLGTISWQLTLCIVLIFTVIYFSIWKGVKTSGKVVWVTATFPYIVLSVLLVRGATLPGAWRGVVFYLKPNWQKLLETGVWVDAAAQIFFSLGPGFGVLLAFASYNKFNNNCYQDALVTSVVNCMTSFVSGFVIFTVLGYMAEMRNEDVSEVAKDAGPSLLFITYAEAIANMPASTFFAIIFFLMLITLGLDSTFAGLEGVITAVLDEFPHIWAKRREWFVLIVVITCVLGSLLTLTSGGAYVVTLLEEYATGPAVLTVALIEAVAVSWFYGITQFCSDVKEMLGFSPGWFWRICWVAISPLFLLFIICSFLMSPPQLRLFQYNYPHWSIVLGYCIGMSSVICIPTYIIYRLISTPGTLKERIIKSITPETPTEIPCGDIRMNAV

Sodium-dependent dopamine transporter, sequence (P23977 whole entry): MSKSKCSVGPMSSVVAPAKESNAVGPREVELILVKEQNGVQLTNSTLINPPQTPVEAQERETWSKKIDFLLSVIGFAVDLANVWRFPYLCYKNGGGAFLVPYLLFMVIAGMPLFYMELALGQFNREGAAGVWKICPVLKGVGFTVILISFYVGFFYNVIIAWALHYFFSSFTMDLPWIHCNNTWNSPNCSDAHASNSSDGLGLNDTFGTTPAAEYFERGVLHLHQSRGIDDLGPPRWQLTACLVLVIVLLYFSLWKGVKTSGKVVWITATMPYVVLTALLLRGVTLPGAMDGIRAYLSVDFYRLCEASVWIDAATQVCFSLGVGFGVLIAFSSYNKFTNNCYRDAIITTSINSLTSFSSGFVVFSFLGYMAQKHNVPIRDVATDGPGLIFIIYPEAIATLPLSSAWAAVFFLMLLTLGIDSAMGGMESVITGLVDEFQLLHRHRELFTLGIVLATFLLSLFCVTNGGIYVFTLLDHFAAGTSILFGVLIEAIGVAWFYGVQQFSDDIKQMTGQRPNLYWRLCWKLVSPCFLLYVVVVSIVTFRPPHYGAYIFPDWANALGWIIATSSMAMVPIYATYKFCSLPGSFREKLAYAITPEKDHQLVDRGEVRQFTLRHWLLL
Norepinephrine transporter, sequence (Q9WTR4 whole entry): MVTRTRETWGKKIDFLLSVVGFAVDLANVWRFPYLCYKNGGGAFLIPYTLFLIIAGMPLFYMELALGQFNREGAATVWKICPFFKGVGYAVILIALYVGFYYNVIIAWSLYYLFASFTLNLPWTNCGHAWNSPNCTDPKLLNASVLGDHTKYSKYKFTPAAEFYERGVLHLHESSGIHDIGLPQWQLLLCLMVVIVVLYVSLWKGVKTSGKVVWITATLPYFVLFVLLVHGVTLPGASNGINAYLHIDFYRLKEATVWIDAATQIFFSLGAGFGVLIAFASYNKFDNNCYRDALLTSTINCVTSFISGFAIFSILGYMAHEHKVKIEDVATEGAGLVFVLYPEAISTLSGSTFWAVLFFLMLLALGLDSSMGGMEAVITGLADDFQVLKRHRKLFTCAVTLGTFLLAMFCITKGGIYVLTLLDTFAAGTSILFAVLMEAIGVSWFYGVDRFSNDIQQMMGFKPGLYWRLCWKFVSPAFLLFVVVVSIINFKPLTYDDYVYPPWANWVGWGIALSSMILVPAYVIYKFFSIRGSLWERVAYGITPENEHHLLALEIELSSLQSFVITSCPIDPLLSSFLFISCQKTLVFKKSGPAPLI

The term Ki denotes the equilibrium dissociation constant of an inhibitor or competing ligand from its target. On to `CN1CCC(c2ccc(Cl)cc2)C(C[S+]([O-])CCO)C1` (stereo not given), for which the inhibition constant (Ki) turned out to be 42 nM in assay [1], 12 nM in assay [2] and 2180 nM in assay [3].
Taken in the same sequence, the figures for `CN1CCC(c2ccc(Cl)cc2)C(CSCC(=O)NO)C1` (stereo not given) were 15 nM, 85 nM and 227 nM.
Taken in the same sequence, the figures for `CN1CCC(c2ccc(Cl)cc2)C(CSCC(N)=O)C1` (stereo not given) were 39 nM, 159 nM and 557 nM.
Consider `COCC[S+]([O-])CC1CN(C)CCC1c1ccc(Cl)cc1` (stereo not given), for which the Ki in assay [1] stood at 25 nM; in assay [2], 15 nM; in assay [3], 469 nM.
Taken in the same sequence, the figures for `CN1CCC(c2ccc(Cl)cc2)C(CSCC(=O)N2CCCCC2)C1` (stereo not given) were 0.68 nM, 83 nM and 4.5 nM.
With `CN1CCC(c2ccc(Cl)cc2)C(C[S+]([O-])CCOC(=O)c2ccccc2)C1` (stereo not given), the Ki was 18 nM in assay [1], 32 nM in assay [2] and 199 nM in assay [3].
Taken in the same sequence, the figures for `NC(=O)C[S+]([O-])CC1CNCCC1c1ccc(Cl)cc1` (stereo not given) were 31 nM, 108 nM and 775 nM.
Taken in the same sequence, the figures for `CNC(=O)CSCC1CN(C)CCC1c1ccc(Cl)cc1` (stereo not given) were 25 nM, 13 nM and 110 nM.
Taken in the same sequence, the figures for `COCCSCC1CN(C)CCC1c1ccc(Cl)cc1` (stereo not given) were 6 nM, 50 nM and 191 nM.
In the case of `COC(=O)CSCC1CN(C)CCC1c1ccc(Cl)cc1` (stereo not given), the Ki in assay [1] is 25 nM; in assay [2], 80 nM; in assay [3], 208 nM.
In the case of `CN1CCC(c2ccc(Cl)cc2)C(CSCCOC(=O)c2ccccc2)C1` (stereo not given), the inhibition constant Ki amounted to 4.5 nM in assay [1], 68 nM in assay [2] and 6.7 nM in assay [3].
Taken in the same sequence, the figures for `CC(C)NC(=O)C[S+]([O-])CC1CN(C)CCC1c1ccc(Cl)cc1` (stereo not given) were 20 nM, 248 nM and 473 nM.
Taken in the same sequence, the figures for `CN1CCC(c2ccc(Cl)cc2)C(CSCC(=O)N(C)C)C1` (stereo not given) were 27 nM, 116 nM and 88 nM.
For the compound `COC(=O)C1CN(C)CCC1c1ccc(Cl)cc1` (stereo not given), the results for the inhibition constant (Ki) in assay [1] and in assay [3] were 252 nM and 8490 nM, respectively.
In the case of `CN1CCC(c2ccc(Cl)cc2)C(C[S+]([O-])CC(=O)NO)C1` (stereo not given), the Ki in assay [1] was determined as 12 nM; in assay [2], 55 nM; in assay [3], 1800 nM.
Taken in the same sequence, the figures for `CC(C)NC(=O)CSCC1CN(C)CCC1c1ccc(Cl)cc1` (stereo not given) were 0.8 nM, 1 nM and 1.1 nM.
Taken in the same sequence, the figures for `COC(=O)C[S+]([O-])CC1CN(C)CCC1c1ccc(Cl)cc1` (stereo not given) were 53 nM, 231 nM and 809 nM.
Taken in the same sequence, the figures for `Cc1noc(C[S+]([O-])CC2CN(C)CCC2c2ccc(Cl)cc2)n1` (stereo not given) were 218 nM, 1650 nM and 1080 nM.
On to `CNC(=O)C[S+]([O-])CC1CN(C)CCC1c1ccc(Cl)cc1` (stereo not given), for which the Ki was determined as 86 nM in assay [1], 164 nM in assay [2] and 2030 nM in assay [3].
`COC(=O)CSCC1CNCCC1c1ccc(Cl)cc1` (stereo not given): the Ki in assay [1] worked out at 0.56 nM; in assay [2], 51 nM; in assay [3] it was 13 nM.
Taken in the same sequence, the figures for `CN1CCC(c2ccc(Cl)cc2)C(CI)C1` (stereo not given) were 424 nM, 376 nM and 238 nM.
On to `CN1CCC(c2ccc(Cl)cc2)C(C[S+]([O-])CC(=O)N2CCCCC2)C1` (stereo not given), for which the Ki in assay [1] is 460 nM; in assay [2] it was 379 nM; in assay [3], 825 nM.
Taken in the same sequence, the figures for `CC(=O)OCC[S+]([O-])CC1CN(C)CCC1c1ccc(Cl)cc1` (stereo not given) were 29 nM, 9 nM and 87 nM.
Taken in the same sequence, the figures for `CC(=O)OCCSCC1CN(C)CCC1c1ccc(Cl)cc1` (stereo not given) were 3.6 nM, 35 nM and 57 nM.
Taken in the same sequence, the figures for `Cc1noc(CSCC2CN(C)CCC2c2ccc(Cl)cc2)n1` (stereo not given) were 32 nM, 126 nM and 221 nM.
`NC(=O)CSCC1CNCCC1c1ccc(Cl)cc1` (stereo not given): the Ki was 10 nM in assay [1], 114 nM in assay [2] and 170 nM in assay [3].
For `CN1CCC(c2ccc(Cl)cc2)C(CSCCO)C1` (stereo not given), the Ki in assay [1] turned out to be 0.94 nM; in assay [2] it was 16 nM; in assay [3], 158 nM.
As for `CN1CCC(c2ccc(Cl)cc2)C(C[S+]([O-])CC(N)=O)C1` (stereo not given), the inhibition constant (Ki) came out at 209 nM in assay [2] and 5790 nM in assay [3].
Consider `CN1CCC(c2ccc(Cl)cc2)C(C[S+]([O-])CC(=O)N(C)C)C1` (stereo not given), for which the Ki stood at 1250 nM in assay [1], 2880 nM in assay [2] and 924 nM in assay [3].
